Reference: paper PMC8583936, “Machine Learning Assisted Approach for Finding Novel High Activity Agonists of Human Ectopic Olfactory Receptors” (International Journal of Molecular Sciences, 2021)
pEC50: −log10 of the molar value. Values joined by “and” are separate entries in the source; they are usually repeats but may differ in a detail not shown here. Equal values may be shown once.

Key:
[1] = target: T1, OR1A1 (Homo sapiens, UniProt Q9P1Q5); details: cited from earlier work
T1 sequence (Q9P1Q5 1-309): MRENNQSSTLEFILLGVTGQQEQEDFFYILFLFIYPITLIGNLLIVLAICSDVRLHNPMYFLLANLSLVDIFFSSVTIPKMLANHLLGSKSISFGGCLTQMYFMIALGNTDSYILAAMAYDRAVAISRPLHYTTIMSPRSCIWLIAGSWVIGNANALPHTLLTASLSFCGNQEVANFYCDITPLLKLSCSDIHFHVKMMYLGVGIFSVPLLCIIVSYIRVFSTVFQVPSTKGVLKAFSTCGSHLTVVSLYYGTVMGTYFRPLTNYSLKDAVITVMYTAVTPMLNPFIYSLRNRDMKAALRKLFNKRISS

[2] = target: T2, OR2W1 (Homo sapiens, UniProt Q9Y3N9); details: cited from earlier work
T2 sequence (Q9Y3N9 1-320): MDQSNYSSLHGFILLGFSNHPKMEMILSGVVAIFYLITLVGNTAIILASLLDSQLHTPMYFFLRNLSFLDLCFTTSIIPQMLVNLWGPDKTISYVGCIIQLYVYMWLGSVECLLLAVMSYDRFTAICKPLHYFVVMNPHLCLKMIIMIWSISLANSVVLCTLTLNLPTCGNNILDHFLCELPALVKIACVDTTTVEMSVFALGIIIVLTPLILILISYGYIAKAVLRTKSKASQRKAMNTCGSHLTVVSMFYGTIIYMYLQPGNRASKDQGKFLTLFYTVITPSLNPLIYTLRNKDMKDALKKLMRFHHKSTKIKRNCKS

[3] = target: T1, OR1A1; assay: Dual-Glo luciferase reporter gene assay, OR1A1 in Hana3A cells; type: cell-based; set-up: The open reading frames of ORs were amplified using Phusion polymerase; Rho-tag (first 20 amino acids of human rhodopsin) (N); expressed in transfected cells; host or cells: Hana3A cells (derived from HEK293T), pCI vector; co-transfected with human RTP1S, M3 receptor, CRE-Luc and SV40-RL; details: OR1A1; for normilazed value = (L-400/R-400): three replicates
Description: (§1) Hana3A cells were maintained in minimal essential medium containing 10% FBS (vol/vol) with penicillin-streptomycin and amphotericin B (1/200 each vol/vol) at 37 °C and 5% CO2. Hana3A cells are derived from HEK293T [57] and are optimized for OR studies as shown in several studies, compared to earlier OR expression in Sf9 insect cells in Gat et al., and in Xenopus oocytes, COS-7, PC12h and CHO-K1 cells in Katada et al..
(§2) The Dual-Glo luciferase assay system (Promega, Madison, WI, USA) was used to evaluate the functionality of wild-type OR1A1 and OR2W1 in an in vitro system. The open reading frames of ORs were amplified using Phusion polymerase (Thermo Fisher Scientific, Waltham, MA, USA). Amplified fragments were cloned into pCI expression vector (Promega, Madison, WI, USA) containing the sequence encoding the first 20 amino acids of human rhodopsin (Rho-tag) at N-terminal. Hana3A cells have been cultured and plated the day before transfection with 6 mL at 1/10 of a 100% confluence 100 mm plate into 96-well plates coated with poly D-lysine. After overnight incubation, the required genes were transfected using, for each plate, 5 ng SV40-RL, 10 ng CRE-Luc, 5 ng human RTP1S [72], 2.5 ng M3 receptor [73] and 5 ng of receptor (OR1A1, OR2W1 or empty vector Rho-pCI) plasmid. After around 18 h of transfection, cells were stimulated during 3.5 h by 25 µL of odorant diluted in CD293 + 1% glutamine + 30 µM CuCl2. Odorants were obtained from Sigma Aldrich (St. Louis, MO, USA) and diluted at 1 M concentration in DMSO as stock solutions. […] The luminescence of Firefly (Luc) and Renilla (Rluc) luciferase, were then sequentially monitored by injecting the corresponding substrate following the supplier’s protocol. The activity in each well was normalized as (Luc-400)/(Rluc-400). The response of the receptor was also normalized to its basal activity as (NLX/NL0)-1 where NL0 is the normalized luminescence value at 0 µM of odorant and NLX the value at X µM. […] Raw results were first analyzed with Excel (Microsoft Corporation, Albuquerque, NM, USA) and dose response curves, max efficacy and EC50 have been determined with GraphPrism 6 software (GraphPad Software, La Jolla, CA, USA). Areas under the curves (AUC) were calculated in Excel by summing all the OR responses at different concentrations for each odorant.

[4] = target: T2, OR2W1; assay: Dual-Glo luciferase reporter gene assay, OR2W1 in Hana3A cells; type: cell-based; set-up: The open reading frames of ORs were amplified using Phusion polymerase; Rho-tag (first 20 amino acids of human rhodopsin) (N); expressed in transfected cells; host or cells: Hana3A cells (derived from HEK293T), pCI vector; co-transfected with human RTP1S, M3 receptor, CRE-Luc and SV40-RL; details: OR2W1; for normilazed value = (L-400/R-400): log[molecule], three replicates
Description: as §1, §2

[5] = log(agonist) vs. response (three parameters), 95% CI (profile likelihood), normalized (L-400/R-400)

O=C(c1ccccc1)c1ccccc1 [Benzophenone]
Class (agonist / non-agonist / conflicting info.) for OR1A1 [1]: agonist
Class (agonist / non-agonist / antagonist / conflicting info.) for OR2W1 [2]: agonist
Bottom [3, 5]: -1.851 to 2.543
Top [3, 5]: 11.67 to 14.46
normilazed value = (L-400/R-400) ([3]; log[molecule], M = -3.5): 7.459 and 7.533 and 8.1639
normilazed value = (L-400/R-400) ([3]; log[molecule], M = -3.75): 11.5068 and 9.986 and 11.6353
normilazed value = (L-400/R-400) ([3]; log[molecule], M = -4): 12.912 and 14.5062 and 13.7456
normilazed value = (L-400/R-400) ([3]; log[molecule], M = -4.25): 14.2415 and 16.6502 and 17.5965
normilazed value = (L-400/R-400) ([3]; log[molecule], M = -4.5): 12.7776 and 13.5787 and 13.5772
normilazed value = (L-400/R-400) ([3]; log[molecule], M = -4.75): 11.0413 and 12.4085 and 13.0495
normilazed value = (L-400/R-400) ([3]; log[molecule], M = -5): 8.171 and 9.262 and 9.035
normilazed value = (L-400/R-400) ([3]; log[molecule], M = -5.25): 6.73 and 6.359 and 7.725
normilazed value = (L-400/R-400) ([3]; log[molecule], M = -5.5): 4.815 and 4.814 and 5.195
normilazed value = (L-400/R-400) ([3]; log[molecule], M = -5.75): 3.111 and 2.689 and 2.548
normilazed value = (L-400/R-400) ([3]; log[molecule], M = -6): 2.109 and 2.273 and 2.067
pEC50 ([3]; three-parameter fit, 95% CI (profile likelihood)): 5.08 to 5.61
LogEC50 ([3]; three-parameter fit, 95% CI (profile likelihood), log[molecule], M): -5.608 to -5.081
Bottom [4, 5]: 9.831 to 25.58
Top [4, 5]: 33.11 to 38.76
normilazed value = (L-400/R-400) ([4]; M = -3.5): 18.7324 and 22.6176 and 22.52
normilazed value = (L-400/R-400) ([4]; M = -3.75): 27.3072 and 27.4246
normilazed value = (L-400/R-400) ([4]; M = -4): 38.4836
normilazed value = (L-400/R-400) ([4]; M = -4.25): 38.5091 and 37.4777
normilazed value = (L-400/R-400) ([4]; M = -4.5): 37.1848 and 47.4935
normilazed value = (L-400/R-400) ([4]; M = -4.75): 39.8168 and 41.5774 and 37.3522
normilazed value = (L-400/R-400) ([4]; M = -5): 38.9191 and 40.737 and 39.7699
normilazed value = (L-400/R-400) ([4]; M = -5.25): 38.6807 and 38.6347 and 47.5267
normilazed value = (L-400/R-400) ([4]; M = -5.5): 41.7726 and 40.3216 and 44.1867
normilazed value = (L-400/R-400) ([4]; M = -6): 27.5667 and 27.048
